# Reference: ChEMBL document CHEMBL1201862, “PubChem BioAssay data set” (2004)
#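 The compound was tested at five concentrations on cells cultured in 96-well plates, with a 48-hour exposure period. GI50 = concentration required for 50% inhibition of growth.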 Calls of active or inactive are those of the source. Rule as the data show it: active = GI50 up to about 1.1 µM and inactive = higher.
# How the values were obtained:
# Assay in all cases: NCI tumour cell line growth inhibition, 48 h
# HL-60 = test system: HL-60
# MOLT-4 = test system: MOLT-4
# U-251 = test system: U-251
# K562 = test system: K562
# DU-145 = test system: DU-145
# SK-OV-3 = test system: SK-OV-3
# SK-MEL-28 = test system: SK-MEL-28
# SW-620 = test system: SW-620
# NCI-H226 = test system: NCI-H226
# SNB-75 = test system: SNB-75
# SR = test system: SR
# M14 = test system: M14
# RPMI-8226 = test system: RPMI-8226
# PC-3 = test system: PC-3
# UACC-257 = test system: UACC-257
# BT-549 = test system: BT-549
# SK-MEL-5 = test system: SK-MEL-5
# SK-MEL-2 = test system: SK-MEL-2
# OVCAR-5 = test system: OVCAR-5
# MDA-MB-231 = test system: MDA-MB-231
# COLO 205 = test system: COLO 205
# NCI/ADR-RES = test system: NCI/ADR-RES
# MDA-N = test system: MDA-N
# KM12 = test system: KM12
# TK-10 = test system: TK-10
# NCI-H23 = test system: NCI-H23
# HCT-116 = test system: HCT-116
# UACC-62 = test system: UACC-62
# NCI-H460 = test system: NCI-H460
# Hs-578T = test system: Hs-578T
# OVCAR-3 = test system: OVCAR-3
# CAKI-1 = test system: CAKI-1
# SN12C = test system: SN12C
# OVCAR-4 = test system: OVCAR-4
# SF-268 = test system: SF-268
# HCC 2998 = test system: HCC 2998
# HCT-15 = test system: HCT-15
# NCI-H522 = test system: NCI-H522
# UO-31 = test system: UO-31
# ACHN = test system: ACHN
# HOP-62 = test system: HOP-62
# MDA-MB-435 = test system: MDA-MB-435
# A549 = test system: A549
# RXF 393 = test system: RXF 393
# SNB-19 = test system: SNB-19
# CCRF-CEM = test system: CCRF-CEM
# T47D = test system: T47D
# SF-295 = test system: SF-295
# OVCAR-8 = test system: OVCAR-8
# EKVX = test system: EKVX
# HOP-92 = test system: HOP-92
# 786-0 = test system: 786-0
# LOX IMVI = test system: LOX IMVI
# MCF7 = test system: MCF7
# IGROV-1 = test system: IGROV-1
# Malme-3M = test system: Malme-3M
# SF-539 = test system: SF-539
# A498 = test system: A498
# HT-29 = test system: HT-29
compound,measurement,setting,value
C[N+]12CCCCC1C(CN1C(=O)c3ccccc3C1=O)CCC2 (stereo not drawn),GI50,HL-60,> 100 µM (inactive)
same,GI50,MOLT-4,> 100 µM (inactive)
same,GI50,U-251,> 100 µM (inactive)
same,GI50,K562,> 100 µM (inactive)
same,GI50,DU-145,> 100 µM (inactive)
same,GI50,SK-OV-3,> 100 µM (inactive)
same,GI50,SK-MEL-28,> 100 µM (inactive)
same,GI50,SW-620,> 100 µM (inactive)
same,GI50,NCI-H226,> 100 µM (inactive)
same,GI50,SNB-75,> 100 µM (inactive)
same,GI50,SR,56 µM (inactive)
same,GI50,M14,> 100 µM (inactive)
same,GI50,RPMI-8226,> 100 µM (inactive)
same,GI50,PC-3,> 100 µM (inactive)
same,GI50,UACC-257,> 100 µM (inactive)
same,GI50,BT-549,> 100 µM (inactive)
same,GI50,SK-MEL-5,> 100 µM (inactive)
same,GI50,SK-MEL-2,> 100 µM (inactive)
same,GI50,OVCAR-5,> 100 µM (inactive)
same,GI50,MDA-MB-231,> 100 µM (inactive)
same,GI50,COLO 205,> 100 µM (inactive)
same,GI50,NCI/ADR-RES,> 100 µM (inactive)
same,GI50,MDA-N,> 100 µM (inactive)
same,GI50,KM12,> 100 µM (inactive)
same,GI50,TK-10,> 100 µM (inactive)
same,GI50,NCI-H23,> 100 µM (inactive)
same,GI50,HCT-116,> 100 µM (inactive)
same,GI50,UACC-62,> 100 µM (inactive)
same,GI50,NCI-H460,> 100 µM (inactive)
same,GI50,Hs-578T,> 100 µM (inactive)
same,GI50,OVCAR-3,> 100 µM (inactive)
same,GI50,CAKI-1,> 100 µM (inactive)
same,GI50,SN12C,> 100 µM (inactive)
same,GI50,OVCAR-4,> 100 µM (inactive)
same,GI50,SF-268,> 100 µM (inactive)
same,GI50,HCC 2998,> 100 µM (inactive)
same,GI50,HCT-15,> 100 µM
same,GI50,NCI-H522,> 100 µM (inactive)
same,GI50,UO-31,> 100 µM (inactive)
same,GI50,ACHN,> 100 µM (inactive)
same,GI50,HOP-62,> 100 µM (inactive)
same,GI50,MDA-MB-435,> 100 µM (inactive)
same,GI50,A549,> 100 µM (inactive)
same,GI50,RXF 393,> 100 µM (inactive)
same,GI50,SNB-19,> 100 µM (inactive)
same,GI50,CCRF-CEM,> 100 µM (inactive)
same,GI50,T47D,> 100 µM (inactive)
same,GI50,SF-295,> 100 µM (inactive)
same,GI50,OVCAR-8,> 100 µM (inactive)
same,GI50,EKVX,> 100 µM (inactive)
same,GI50,HOP-92,> 100 µM (inactive)
same,GI50,786-0,> 100 µM (inactive)
same,GI50,LOX IMVI,> 100 µM (inactive)
same,GI50,MCF7,> 100 µM (inactive)
same,GI50,IGROV-1,> 100 µM (inactive)
same,GI50,Malme-3M,> 100 µM (inactive)
same,GI50,SF-539,> 100 µM (inactive)
same,GI50,A498,> 100 µM (inactive)
same,GI50,HT-29,> 100 µM (inactive)
O=S(=O)(O)c1ccc(/N=N/c2c(O)ccc3ccccc23)cc1,GI50,HL-60,> 100 µM (inactive)
same,GI50,MOLT-4,> 100 µM (inactive)
same,GI50,U-251,> 100 µM (inactive)
same,GI50,K562,> 100 µM (inactive)
same,GI50,DU-145,> 100 µM (inactive)
same,GI50,SK-OV-3,> 100 µM (inactive)
same,GI50,SK-MEL-28,> 100 µM (inactive)
same,GI50,SW-620,> 100 µM (inactive)
same,GI50,NCI-H226,98.2 µM (inactive)
same,GI50,SNB-75,> 100 µM (inactive)
same,GI50,SR,> 100 µM (inactive)
same,GI50,M14,> 100 µM (inactive)
same,GI50,RPMI-8226,> 100 µM (inactive)
same,GI50,PC-3,> 100 µM (inactive)
same,GI50,UACC-257,> 100 µM (inactive)
same,GI50,BT-549,> 100 µM (inactive)
same,GI50,SK-MEL-5,> 100 µM (inactive)
same,GI50,SK-MEL-2,> 100 µM (inactive)
same,GI50,OVCAR-5,> 100 µM (inactive)
same,GI50,MDA-MB-231,> 100 µM (inactive)
same,GI50,COLO 205,> 100 µM (inactive)
same,GI50,NCI/ADR-RES,> 100 µM (inactive)
same,GI50,MDA-N,> 100 µM (inactive)
same,GI50,KM12,> 100 µM (inactive)
same,GI50,TK-10,> 100 µM (inactive)
same,GI50,NCI-H23,> 100 µM (inactive)
same,GI50,HCT-116,> 100 µM (inactive)
same,GI50,UACC-62,> 100 µM (inactive)
same,GI50,NCI-H460,> 100 µM (inactive)
same,GI50,Hs-578T,> 100 µM (inactive)
same,GI50,OVCAR-3,> 100 µM (inactive)
same,GI50,CAKI-1,> 100 µM (inactive)
same,GI50,SN12C,> 100 µM (inactive)
same,GI50,OVCAR-4,> 100 µM (inactive)
same,GI50,SF-268,> 100 µM (inactive)
same,GI50,HCC 2998,> 100 µM (inactive)
same,GI50,HCT-15,> 100 µM
same,GI50,NCI-H522,> 100 µM (inactive)
same,GI50,UO-31,> 100 µM (inactive)
same,GI50,ACHN,> 100 µM (inactive)
same,GI50,HOP-62,> 100 µM (inactive)
same,GI50,MDA-MB-435,> 100 µM (inactive)
same,GI50,A549,> 100 µM (inactive)
same,GI50,RXF 393,> 100 µM (inactive)
same,GI50,SNB-19,> 100 µM (inactive)
same,GI50,CCRF-CEM,> 100 µM (inactive)
same,GI50,T47D,> 100 µM (inactive)
same,GI50,SF-295,> 100 µM (inactive)
same,GI50,OVCAR-8,> 100 µM (inactive)
same,GI50,EKVX,> 100 µM (inactive)
same,GI50,HOP-92,> 69.8 µM (inactive)
same,GI50,786-0,> 100 µM (inactive)
same,GI50,LOX IMVI,> 100 µM (inactive)
same,GI50,MCF7,> 100 µM (inactive)
same,GI50,IGROV-1,> 100 µM (inactive)
same,GI50,Malme-3M,4.58 µM (inactive)
same,GI50,SF-539,> 100 µM (inactive)
same,GI50,A498,> 100 µM (inactive)
same,GI50,HT-29,> 100 µM (inactive)
